The values below come from patent publication US20120004246A1, “PURINYL DERIVATIVES AND THEIR USE AS POTASSIUM CHANNEL MODULATORS” (NeuroSearch A/S, priority 2007, published 2012).

The target in this assay is T1, hSK3 channels (Homo sapiens, UniProt Q9UGI6).
T1 construct: expressed in transfected cells; host or cells: HEK293
Description: whole-cell patch-clamp of SK3 current in HEK293 cells expressing hSK3 channels. The class given is cell-based. The settings on record: SK3 activation. As to the method:
The ionic current through small-conductance Ca^2+-activated K^+ channels (SK channels, subtype 3) is recorded using the whole-cell configuration of the patch-clamp technique in a classic patch-clamp set-up using HEK293 tissue culture cells expressing hSK3 channels as described in e.g. WO 2006/100212.
The SC100 value determined is defined as the Stimulating Concentration required for increasing the baseline current by 100%. The below SC100 values are an indication of the SK3 activating properties of the compounds of the invention.
(In general: Patch clamp records ionic current or voltage across a cell membrane.)

With `Cc1cc(C)n(-c2nc(Nc3ccc(F)c(F)c3)c3ncn(C)c3n2)n1` [Compound 6.1, (3,4-Difluoro-phenyl)-(2-(3,5-dimethyl-pyrazol-1-yl)-9-methyl-9H-purin-6-yl)-amine], the “SC100 (Stimulating Concentration required for increasing the baseline current by 100%)” value was determined as 0.02 µM.
Next, `CCn1cnc2c(Nc3ccc(Cl)c(Cl)c3)nc(-n3nc(C)cc3C)nc21` [Compound 4.1, (3,4-Dichloro-phenyl)-[2-(3,5-dimethyl-pyrazol-1-yl)-9-ethyl-9H-purin-6-yl]-amine]: 0.04 µM.
